Legend:
[1] = test system: DIPGX29 (H3.3 K27M diffuse intrinsic pontine glioma line); assay: EC50 (inflection of fitted growth-inhibition curve) (log10 M)
Outline: (§1)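 EC50 and maximal response (yFin) were derived from the lowest-AICc fit, either three- or four-parameter log-logistic. The data were pooled CellTiter-Glo luminescence values, log2-transformed and normalised per plate to % activity between negative (solvent) and positive controls. Patient-derived pHGG/DIPG cell lines and astrocyte controls on 1% Geltrex-coated 384-well plates received a 10-point threefold dilution series (mean top concentration 35 μM) by pin tool, in triplicate, for 7 days (iAstro 3 days) at 37 °C, 5% CO2.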

[2] = test system: DIPGX9 (diffuse intrinsic pontine glioma line); assay: as above
Outline: as §1

[3] = test system: HABS (astrocyte control); assay: as above
Outline: as §1

[4] = test system: HGGX39 (paediatric high-grade glioma line); assay: as above
Outline: as §1

[5] = test system: HGGX42 (H3.3 G34R paediatric high-grade glioma line); assay: as above
Outline: as §1

[6] = test system: HGGX6 (H3.3 G34R paediatric high-grade glioma line); assay: as above
Outline: as §1

[7] = test system: SUDIPGIV (diffuse intrinsic pontine glioma line); assay: as above
Outline: as §1

[8] = test system: SUDIPGVI (diffuse intrinsic pontine glioma line); assay: as above
Outline: as §1

[9] = test system: SUDIPGXIII (diffuse intrinsic pontine glioma line); assay: as above
Outline: as §1

[10] = test system: SUDIPGXIX (diffuse intrinsic pontine glioma line); assay: as above
Outline: as §1

[11] = test system: SUDIPGXVII (diffuse intrinsic pontine glioma line); assay: as above
Outline: as §1

[12] = test system: DIPGX29; assay: maximal growth inhibition (yFin) relative to DMSO / staurosporine; higher = more efficacious
Outline: as §1

[13] = test system: DIPGX9; assay: as above
Outline: as §1

[14] = test system: HABS; assay: as above
Outline: as §1

[15] = test system: HGGX39; assay: as above
Outline: as §1

[16] = test system: HGGX42; assay: as above
Outline: as §1

[17] = test system: HGGX6; assay: as above
Outline: as §1

[18] = test system: SUDIPGIV; assay: as above
Outline: as §1

[19] = test system: SUDIPGVI; assay: as above
Outline: as §1

[20] = test system: SUDIPGXIII; assay: as above
Outline: as §1

[21] = test system: SUDIPGXIX; assay: as above
Outline: as §1

[22] = test system: SUDIPGXVII; assay: as above
Outline: as §1

[23] = test system: DIPGX29; assay: area under dose-response curve of % growth inhibition (log2 RLU vs DMSO / staurosporine), 1e-11 to 1e-4 M (% x log10 M); higher = more growth inhibition
Outline: (§2)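 Cells were exposed in triplicate for 7 days (iAstro: 3 days) at 37 °C, 5% CO2 to a 10-point series of threefold dilutions with a mean top concentration of 35 μM. These were patient-derived pHGG/DIPG lines plus astrocytes, grown on 384-well plates coated with 1% Geltrex. Readout was CellTiter-Glo luminescence, log2-transformed and set per plate to % activity between solvent and positive controls, from which area under the curve was derived by trapezoid rule on a log-logistic fit or, failing that, a smoothing spline.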

[24] = test system: DIPGX37 (H3.3 K27M diffuse intrinsic pontine glioma line); assay: as above
Outline: as §2

[25] = test system: DIPGX7 (H3.3 K27M diffuse intrinsic pontine glioma line); assay: as above
Outline: as §2

[26] = test system: DIPGX9; assay: as above
Outline: as §2

[27] = test system: HABS; assay: as above
Outline: as §2

[28] = test system: HGGX2 (paediatric high-grade glioma line); assay: as above
Outline: as §2

[29] = test system: HGGX39; assay: as above
Outline: as §2

[30] = test system: HGGX42; assay: as above
Outline: as §2

[31] = test system: HGGX6; assay: as above
Outline: as §2

[32] = test system: SUDIPGIV; assay: as above
Outline: as §2

[33] = test system: SUDIPGVI; assay: as above
Outline: as §2

[34] = test system: SUDIPGXIII; assay: as above
Outline: as §2

[35] = test system: SUDIPGXIX; assay: as above
Outline: as §2

[36] = test system: SUDIPGXVII; assay: as above
Outline: as §2

[37] = test system: SUDIPGXXI (diffuse intrinsic pontine glioma line); assay: as above
Outline: as §2

[38] = test system: iAstro (astrocyte control); assay: as above
Outline: as §2

With `Nc1ccc2ncnc(NCCc3ccc(Oc4ccccc4)cc3)c2c1` [EVP4593] the “EC50 (log10 M)” value [1] was -7.98, the “EC50 (log10 M)” value [2] was -7.97 and the “EC50 (log10 M)” value [3] was -7.75. For the same compound, the “EC50 (log10 M)” value [4] was -8.62, the “EC50 (log10 M)” value [5] was -7.84 and the “EC50 (log10 M)” value [6] was -8.04. The “EC50 (log10 M)” value [7] was -7.95, the “EC50 (log10 M)” value [8] was -8.43 and the “EC50 (log10 M)” value [9] was -8.11. For the same compound, the “EC50 (log10 M)” value [10] was -7.71, the “EC50 (log10 M)” value [11] was -8.18 and the maximal growth inhibition [12] was 45.1%. The maximal growth inhibition [13] was 46.2%, the maximal growth inhibition [14] was 37.7% and the maximal growth inhibition [15] was 46.7%. The maximal growth inhibition [16] was 44.9%, the maximal growth inhibition [17] was 38.5% and the maximal growth inhibition [18] was 74.9%. It also gave a maximal growth inhibition [19] of 54.6%, a maximal growth inhibition [20] of 84.8% and a maximal growth inhibition [21] of 47.8%. For the same compound, the maximal growth inhibition [22] was 35.9%, the “area under dose-response curve” value [23] was 179 and the “area under dose-response curve” value [24] was 275. The “area under dose-response curve” value [25] was 447, the “area under dose-response curve” value [26] was 183 and the “area under dose-response curve” value [27] was 141. For the same compound, the “area under dose-response curve” value [28] was 71.8, the “area under dose-response curve” value [29] was 216 and the “area under dose-response curve” value [30] was 173. The “area under dose-response curve” value [31] was 156, the “area under dose-response curve” value [32] was 296 and the “area under dose-response curve” value [33] was 242. For the same compound, the “area under dose-response curve” value [34] was 348, the “area under dose-response curve” value [35] was 178 and the “area under dose-response curve” value [36] was 171. The “area under dose-response curve” value [37] was 224 and the “area under dose-response curve” value [38] was 113.

Source: the supplement of paper PMC8253809
